The source of these data is patent publication US8906902B2, “Antibacterial compounds” (Biota Europe Ltd., priority 2012, dated 2014).

The subject of one series is S. aureus (ATCC 29213). Description: Antibacterial activity MIC, S. aureus. In kind it is cell-based. Conditions: Staphylococcus aureus, ATCC29213.
The next series deals with S. pyogenes (ATCC 51339). Description: Antibacterial activity MIC, S. pyogenes. In kind it is cell-based. The following applies: Streptococcus pyogenes, ATCC51339.
Series [1] is described as follows: Pharmacokinetic profile, rat assay (IV). Type of series: in vivo. Conditions: plasma. As to the method:
The pharmacokinetic profiles of compounds are determined by measuring the compound concentration in plasma by LC/MS/MS following a single intravenous or peroral administration of the compounds at a dose of 1 or 3 mg/kg individually or in a cassette of up to 5 compounds. The concentrations are described as the mean plasma concentrations at each time point from three animals. Intravenous dose formulation is administered as a single bolus dose through the tail vein. Oral dose formulation is administered to animals by an oral gavage needle. In both cases the dose volume is 5.0 mL/kg. Blood is collected from rats using a jugular vein catheter and from anesthetized mice through a capillary guided into the retro-orbital plexus. The collected blood is then centrifuged to obtain plasma and the compounds extracted into methanol prior to determining the compound concentration by LC/MS/MS.
The pharmacokinetic profiles of selected compounds of the invention were compared directly with their primary alcohol analogues, Compounds A and B below, in the rat assay (IV).

A further series is described as follows: Thermodynamic solubility. The following applies: aqueous buffer, thermodynamic from solid; pH 7.4, HEPES buffer, 24 hours shaking at room temperature. In kind it is physicochemical. Here is the method: In a 1.5 mL eppendorf tube, approximately 2 mg of compound is resuspended in a volume of HEPES buffer pH 7.4 to achieve a 5 mg/mL suspension. The tubes are placed on an orbital shaker at room temperature and following shaking for 24 hours the tubes are spun at 1400 rpm in a bench top centrifuge to pellet the undissolved compound. Duplicate 150 μL aliquots of the supernatant are then transferred into two ultracentrifuge tubes and spun at 357440 g for 4 hours at 20° C. 50 μL of the supernatant from each tube is then diluted with 100 μL of methanol and analysed by HPLC or LCMS to determine the concentration of compound in solution by comparing to a standard curve. The thermodynamic solubility of representative Compounds 19, 123, 134 and 153 were tested and determined to be highly soluble, at ≧2 mg/mL, at pH 7.4.

The nature of another series: Microsomal stability. Type of series: in vitro ADME. The following applies: pH 7.4; mouse liver microsomes; major metabolite the parent alcohol. Here is the method:
In a 96 well polypropylene plate, 10 μM compound is prepared in 100 mM KPO4 buffer pH 7.4, 5 mM MgCl2, 25 μg/ml Alamethicin, 1 mg/ml (protein) liver microsomes (mouse) and a final DMSO concentration of 0.1% in 100 μl in duplicate. The plate is pre-incubated at 37° C. for 10 minutes after which reactions are initiated by the addition of NADPH and UDPGA to a final concentration of 1 mM and 5 mM respectively. Reactions are incubated at 37° C. and terminated by the addition of 100 μl DMSO at 0, 10, 30 and 60 minutes. Samples of 100 μl are withdrawn and added to 50 μl ice cold methanol and mixed on an orbital shaker for 10 minutes to precipitate the proteins. The samples are then centrifuged at 4000 rpm and 10° C. for 30 minutes and supernatants are analysed by LCMS. The T1/2 and clearance are determined by linear regression from the peak areas.
A general note: Microsomes from liver hold many membrane-bound enzymes, among them those of drug oxidation.

For the next series, the system named is S. pneumoniae ATCC6301. Description: Mouse survival model (lung infection). In kind it is in vivo. Conditions: CD-1 mice. As to the method: Anaesthetised female CD-1 mice (18-22 g) were inoculated intranasally with approximately 10^6 cfus of S. pneumoniae ATCC6301 prepared from a fresh overnight culture by placing 50 μl of inoculum on the nares and allowing the mice to inhale. Compounds are administered as indicated at 24, 48 and 72 hours post inoculation and the mice monitored for survival for seven or nine days after infection. […] Similarly, when Compound 17 was dosed IV at 30 mg/kg 90% of mice survived at day seven.

Series [2] concerns H. influenzae (ATCC 49247). The series can be described thus: Antibacterial activity MIC, H. influenzae. The following applies: Haemophilus influenzae, ATCC49247. Type of series: cell-based.

What is called AUC is concentration integrated over time. Read a high AUC as high exposure. Usually clearance stands for a measure of how efficiently the substance is removed, as volume per time. A higher clearance goes with a high capacity for elimination. The term half-life denotes the time in which the quantity being followed falls by half. Usually thermodynamic solubility stands for solubility found after equilibrating the solid with the medium.

Each structure is given as a SMILES string. Values after ≈ are worked out from the molar mass of the structure shown. Where only a bound is given, the exact number is not on record here.

Take `CCNC(=O)Nc1nc2cc(-c3cnc(C(C)(C)O)nc3)cc(-c3nccc(N4CCN(CC)CC4)n3)c2s1` [Compound 79, 1-ethyl-3-[7-[4-(4-ethylpiperazin-1-yl)pyrimidin-2-yl]-5-[2-(1-hydroxy-1-methyl-ethyl)pyrimidin-5-yl]-1,3-benzothiazol-2-yl]urea]: the MIC in the series with S. aureus (ATCC 29213) and in the series on S. pyogenes (ATCC 51339) was 2 µg/mL (≈ 3.65 µM) each time.
In series [1] (dose 1 mg/kg), `CCNC(=O)Nc1nc2cc(-c3ccc(C(C)(C)O)nc3)cc(-c3ccccn3)c2s1` [Compound 27, 1-ethyl-3-[5-[6-(1-hydroxy-1-methyl-ethyl)-3-pyridyl]-7-(2-pyridyl)-1,3-benzothiazol-2-yl]urea] registered an AUC of 1130 ng·h/mL, a clearance of 13 mL/min/kg and a half-life of 2.63 h.
Turning to `CCNC(=O)Nc1nc2cc(-c3cnc(CO)nc3)cc(-c3ccccn3)c2s1` [Compound A, 1-Ethyl-3-[5-[2-(hydroxymethyl)pyrimidin-5-yl]-7-(2-pyridyl)-1,3-benzothiazol-2-yl]urea, reference compound], in series [1] (dose 3 mg/kg), the AUC was found to be 2000 ng·h/mL, the clearance was determined as 25 mL/min/kg and the half-life worked out at 1.35 h.
On to `CCNC(=O)Nc1nc2cc(-c3cnc(C4(OC(=O)CCC(=O)O)COC4)nc3)cc(-c3ccccn3)c2s1` [Compound 123, 4-[3-[5-[2-(ethylcarbamoylamino)-7-(2-pyridyl)-1,3-benzothiazol-5-yl]pyrimidin-2-yl]oxetan-3-yl]oxy-4-oxo-butanoic acid], for which, in “Thermodynamic solubility”, the thermodynamic solubility at 24 h was not below 2000 µg/mL. Moreover, the half-life at 10 μM in “Microsomal stability” was less than 0.333 h.
For the molecule `CCNC(=O)Nc1nc2cc(-c3cnc(C(C)O)nc3)cc(-c3ccccn3)c2s1` (stereo not shown) [Compound 17, 1-ethyl-3-[5-[2-(1-hydroxyethyl)pyrimidin-5-yl]-7-(2-pyridyl)-1,3-benzothiazol-2-yl]urea], in series [1] (dose 3 mg/kg), the AUC worked out at 4000 ng·h/mL, the clearance was found to be 12 mL/min/kg and the half-life was 1.78 h. The mice survived with S. pneumoniae ATCC6301 (dosed IV at 30 mg/kg, at day seven) amounted to 90%.
As for `CCNC(=O)Nc1nc2cc(-c3cnc([C@H](C)OP(=O)(O)O)nc3)cc(-c3ccccn3)c2s1` [Compound 153, [(1S)-1-[5-[2-(ethylcarbamoylamino)-7-(2-pyridyl)-1,3-benzothiazol-5-yl]pyrimidin-2-yl]ethyl]dihydrogen phosphate], the thermodynamic solubility at 24 h in the series “Thermodynamic solubility” is not below 2000 µg/mL.
Consider `CCNC(=O)Nc1nc2cc(-c3cnc([C@@H](C)OC(=O)CCC(=O)O)nc3)cc(-c3ccccn3)c2s1` [Compound 134, 4-[(1R)-1-[5-[2-(ethylcarbamoylamino)-7-(2-pyridyl)-1,3-benzothiazol-5-yl]pyrimidin-2-yl]ethoxy]-4-oxo-butanoic acid], for which the thermodynamic solubility at 24 h in “Thermodynamic solubility” was not below 2000 µg/mL. Further, the half-life at 10 μM in the series “Microsomal stability” is less than 0.333 h.
Turning to `CCNC(=O)Nc1nc2cc(-c3cnc(N4CCC(C)(C(=O)O)CC4)nc3)cc(-c3ccc(C(C)(C)O)cn3)c2s1` [Compound 99, 1-[5-[2-(ethylcarbamoylamino)-7-[5-(1-hydroxy-1-methyl-ethyl)-2-pyridyl]-1,3-benzothiazol-5-yl]pyrimidin-2-yl]-4-methyl-piperidine-4-carboxylic acid], the MIC in the series with S. aureus (ATCC 29213) is 2 µg/mL (≈ 3.47 µM); in the series with S. pyogenes (ATCC 51339) it was not above 1 µg/mL; in series [2] it was not above 2 µg/mL.
Consider `CCNC(=O)Nc1nc2cc(-c3cnc([C@H](C)OC(=O)CCC(=O)O)nc3)cc(-c3ccccn3)c2s1` [Compound 133, 4-[(1S)-1-[5-[2-(ethylcarbamoylamino)-7-(2-pyridyl)-1,3-benzothiazol-5-yl]pyrimidin-2-yl]ethoxy]-4-oxo-butanoic acid], for which the half-life at 10 μM in “Microsomal stability” was less than 0.333 h.
In turn, `CCNC(=O)Nc1nc2cc(-c3cnc(C(C)OC(=O)CCC(=O)O)nc3)cc(-c3ccccn3)c2s1` (stereo not shown) [Compound 19, 4-[1-[5-[2-(ethylcarbamoylamino)-7-(2-pyridyl)-1,3-benzothiazol-5-yl]pyrimidin-2-yl]ethoxy]-4-oxo-butanoic acid] yielded a solubility (thermodynamic) at 24 h in “Thermodynamic solubility” not below 2000 µg/mL. Besides, the half-life at 10 μM in the series “Microsomal stability” was less than 0.333 h.
Regarding `CCNC(=O)Nc1nc2cc(-c3ccc(CO)nc3)cc(-c3ccccn3)c2s1` [Compound B, 1-Ethyl-3-[5-[6-(hydroxymethyl)-3-pyridyl]-7-(2-pyridyl)-1,3-benzothiazol-2-yl]urea, reference compound], in series [1] (dose 3 mg/kg), the AUC stood at 1800 ng·h/mL, the clearance came out at 28 mL/min/kg and the half-life is 1 h.
Consider `CCNC(=O)Nc1nc2cc(-c3cnc(C(C)(C)O)nc3)cc(-c3ccccn3)c2s1` [Compound 1, 1-ethyl-3-[5-[2-(1-hydroxy-1-methyl-ethyl)pyrimidin-5-yl]-7-(2-pyridyl)-1,3-benzothiazol-2-yl]urea], for which, in series [1] (dose 1 mg/kg), the AUC was found to be 3100 ng·h/mL, the clearance came out at 4.3 mL/min/kg and the half-life was found to be 3.38 h. The molecule also registered a mice surviving in the series on S. pneumoniae ATCC6301 (dosed IV at 10 mg/kg, at seven or nine days) of 80%.
With `CC(=O)NC[C@H]1CN(c2ccc(N3CCOCC3)c(F)c2)C(=O)O1` [Linezolid, reference compound], the “survival of mice (in words)” value in the series on S. pneumoniae ATCC6301 (dosed with 10 mg/kg) is given as “dead by day six”.
